The source of these data is PMC7801683 (2021).

By ΔTm is commonly meant the shift of the melting midpoint relative to a reference. In general, Tm refers to the temperature at which the thermal transition is half complete.

Experiment [1] has as its system GGA/AGA internal loop RNA duplex (RNA, mismatch bulge abasic) GUACUGGAACAUG/CAUGUAGAAGUAC
In words: UV melting. The settings on record: 100 mM NaCl; 10 mM sodium cacodylate pH 7.0; 20 µM compound, 4 µM RNA.

The test system of experiment [2] is r(UGGAA)9 (RNA, repeat) UGGAAUGGAAUGGAAUGGAAUGGAAUGGAAUGGAAUGGAAUGGAA
The experiment can be described thus: UV melting. The settings on record: 100 mM NaCl; 10 mM sodium cacodylate pH 7.0; 20 µM compound, 2 µM RNA; Tm 73.7 °C with NCD, none without.

For experiment [3], the system named is GGA/GGA internal loop RNA duplex (UGGAA/UGGAA pentad) (RNA, mismatch bulge abasic) GUACUGGAACAUG/CAUGUGGAAGUAC
The experiment can be described thus: UV melting. The settings on record: 100 mM NaCl; 10 mM sodium cacodylate pH 7.0; 20 µM compound, 4 µM RNA.

For experiment [4], the system named is SCA31 hpRNA (RNA, hairpin) GUACUGGAACAUGUUUCAUGUGGAAGUAC
The experiment can be described thus: ITC. The note with it: 100 mM NaCl; 10 mM sodium cacodylate pH 7.0, 25 °C; apparent; single set of identical sites.

Experiment [5] shares this test system. The experiment can be described thus: NMR solution structure. The settings on record: 100 mM NaCl; 20 mM sodium phosphate pH 6.9, 288 K.
Experiment [6] deals with r(UAAAA)9 (RNA, repeat) UAAAAUAAAAUAAAAUAAAAUAAAAUAAAAUAAAAUAAAAUAAAA
In words: UV melting. The settings on record: 100 mM NaCl; 10 mM sodium cacodylate pH 7.0; 20 µM compound, 2 µM RNA.

Experiment [7] has as its system SCA31 hpRNA (RNA, hairpin) GUACUGGAACAUGUUUCAUGUGGAAGUAC
In words: ESI-TOF MS. The note with it: 100 mM ammonium acetate; 50% methanol; 10 µM RNA, 40 µM compound.

Experiment [8] deals with r(UGGAA)9 (RNA, repeat) UGGAAUGGAAUGGAAUGGAAUGGAAUGGAAUGGAAUGGAAUGGAA
In words: EMSA. The note with it: 100 mM NaCl; 10 mM sodium cacodylate pH 7.0, room temperature; 2 µM compound.

The test system of experiment [9] is 5'-biotin-TEG r(UGGAA)9 (RNA, repeat) UGGAAUGGAAUGGAAUGGAAUGGAAUGGAAUGGAAUGGAAUGGAA
In words: SPR. The settings on record: 150 mM NaCl; 10 mM HEPES pH 7.4, 3 mM EDTA, 0.05% P20; 500 nM compound.

Take `Cc1ccc2ccc(NC(=O)OCCCNCCCOC(=O)Nc3ccc4ccc(C)nc4n3)nc2n1`: the ΔTm in experiment [1] turned out to be 5.2 °C. The binding entry is on record as “yes” in [2]; “yes” in experiment [5]; “no” in experiment [6]; “yes” in [7]; “yes” in [8]; “yes” in [9]. In addition, the Tm in experiment [3] turned out to be 21.5 °C. Further, the “Kd(app)” value in experiment [4] is given as 32 nM.
